Experimental data published in patent publication US20250059171A1 (Hoffmann-La Roche Inc., priority 2021, published 2025).

Key:
HCoV-229E 3CLpro = HCoV-229E 3CLpro (Human coronavirus 229E, UniProt P0C6X1); test: HCoV-229E 3CLpro inhibition assay (FRET); type: biochemical
SARS-CoV 3CLpro = SARS-CoV 3CLpro (Severe acute respiratory syndrome coronavirus, UniProt P0C6X7); test: biochemical
MERS-CoV 3CLpro = MERS-CoV 3CLpro (Middle East respiratory syndrome-related coronavirus, UniProt K9N7C7); test: biochemical
SARS-CoV-2 3CLpro = SARS-CoV-2 3CLpro (Severe acute respiratory syndrome coronavirus 2, UniProt P0DTD1); test: biochemical

Chain of MERS-CoV 3CLpro (K9N7C7 3248-3553): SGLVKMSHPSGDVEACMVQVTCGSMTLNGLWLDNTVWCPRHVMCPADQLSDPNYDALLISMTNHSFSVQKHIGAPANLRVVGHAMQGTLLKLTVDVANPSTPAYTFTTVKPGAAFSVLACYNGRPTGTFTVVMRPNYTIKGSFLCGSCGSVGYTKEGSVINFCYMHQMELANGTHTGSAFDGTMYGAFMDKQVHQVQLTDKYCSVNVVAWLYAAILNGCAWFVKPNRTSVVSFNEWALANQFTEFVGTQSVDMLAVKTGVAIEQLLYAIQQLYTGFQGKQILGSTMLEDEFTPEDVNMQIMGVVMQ
Chain of HCoV-229E 3CLpro (P0C6X1 2966-3267): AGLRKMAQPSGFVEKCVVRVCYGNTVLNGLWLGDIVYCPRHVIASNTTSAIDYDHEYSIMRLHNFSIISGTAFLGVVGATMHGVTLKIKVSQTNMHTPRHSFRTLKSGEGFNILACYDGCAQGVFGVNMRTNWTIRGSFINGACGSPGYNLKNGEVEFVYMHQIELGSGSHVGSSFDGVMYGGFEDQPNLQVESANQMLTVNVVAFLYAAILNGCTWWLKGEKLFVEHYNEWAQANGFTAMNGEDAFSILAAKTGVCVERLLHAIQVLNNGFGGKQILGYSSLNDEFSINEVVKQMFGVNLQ

Row | SMILES | IC50 (HCoV-229E 3CLpro) [nM] | IC50 (SARS-CoV 3CLpro) [nM] | IC50 (MERS-CoV 3CLpro) [nM] | IC50 (SARS-CoV-2 3CLpro) [nM]
1 | CC(C)(C)[C@H](NC(=O)C(F)(F)C(F)(F)F)C(=O)N1C[C@H]2[C@@H]([C@H]1C(=O)NN(C[C@@H]1CCNC1=O)C(=O)[C@H](F)Cl)C2(C)C [Example 22, N-[(1S)-1-[(1R,2S,5S)-2-[[[(2R)-2-chloro-2-fluoro-acetyl]-[[(3S)-2-oxopyrrolidin-3-yl]methyl]amino]carbamoyl]-6,6-dimethyl-3-azabicyclo[3.1.0]hexane-3-carbonyl]-2,2-dimethyl-propyl]-2,2,3,3,3-pentafluoro-propanamide] | 76 | 31 | 183 | 8
2 | CC1(C)[C@@H]2[C@@H](C(=O)NN(C[C@@H]3CCNC3=O)C(=O)[C@H](F)Cl)N(C(=O)c3cc(C(F)(F)F)cc(C(F)(F)F)c3)C[C@@H]21 [Example 177, (1R,2S,5S)-3-[3,5-bis(trifluoromethyl)benzoyl]-N′-[(2R)-2-chloro-2-fluoro-acetyl]-6,6-dimethyl-N′—[[(3S)-2-oxopyrrolidin-3-yl]methyl]-3-azabicyclo[3.1.0]hexane-2-carbohydrazide] | 138 | 232 | 278 | 147
3 | CCC(C)(C)[C@H](NC(=O)C(F)F)C(=O)N1C[C@H]2[C@@H]([C@H]1C(=O)NN(C[C@@H]1CCNC1=O)C(=O)[C@H](F)Cl)C2(C)C [Example 144, N-[(1S)-1-[(1R,2S,5S)-2-[[[(2R)-2-chloro-2-fluoro-acetyl]-[[(3S)-2-oxopyrrolidin-3-yl]methyl]amino]carbamoyl]-6,6-dimethyl-3-azabicyclo[3.1.0]hexane-3-carbonyl]-2,2-dimethyl-butyl]-2,2-difluoro-acetamide] | 33 | 15 | 112 | 11
4 | CC[C@@H](C)[C@H](NC(=O)C(F)F)C(=O)N1C[C@H]2[C@@H]([C@H]1C(=O)NN(C[C@@H]1CCNC1=O)C(=O)[C@H](F)Cl)C2(C)C [Example 112, N-[(1S,2R)-1-[(1R,2S,5S)-2-[[[(2R)-2-chloro-2-fluoro-acetyl]-[[(3S)-2-oxopyrrolidin-3-yl]methyl]amino]carbamoyl]-6,6-dimethyl-3-azabicyclo[3.1.0]hexane-3-carbonyl]-2-methyl-butyl]-2,2-difluoro-acetamide] | 22 | 14 | 71 | 8
5 | CCC(C)(C)[C@H](NC(=O)C(C)F)C(=O)N1C[C@H]2[C@@H]([C@H]1C(=O)NN(C[C@@H]1CCNC1=O)C(=O)[C@@H](F)Cl)C2(C)C (mixture of isomers) [Example 146, Rac-2-fluoro-N-[(1S)-2,2-dimethyl-1-[(1R,2S,5S)-6,6-dimethyl-2-[[[(2S)-2-chloro-2-fluoro-acetyl]-[[(3S)-2-oxopyrrolidin-3-yl]methyl]amino]carbamoyl]-3-azabicyclo[3.1.0]hexane-3-carbonyl]butyl]propanamide] | 69 | 23 | 151 | 16
6 | CC(F)(F)C(=O)N[C@H](C(=O)N1C[C@@H]2CCC[C@@H]2[C@H]1C(=O)NN(C[C@@H]1CCNC1=O)C(=O)[C@H](F)Cl)C(C)(C)C [Example 30, N-[(1S)-1-[(3S,3aS,6aR)-3-[[[(2R)-2-chloro-2-fluoro-acetyl]-[[(3S)-2-oxopyrrolidin-3-yl]methyl]amino]carbamoyl]-3,3a,4,5,6,6a-hexahydro-1H-cyclopenta[c]pyrrole-2-carbonyl]-2,2-dimethyl-propyl]-2,2-difluoro-propanamide] | 49 | 15 | 143 | 8
7 | CC(C)(C)[C@H](NC(=O)C(F)(F)F)C(=O)N1C[C@@H]2CCC[C@@H]2[C@H]1C(=O)NN(C[C@@H]1CCCNC1=O)C(=O)[C@H](F)Cl [Example 164a, N-[(1S)-1-[(3S,3aS,6aR)-3-[[[(2R)-2-chloro-2-fluoro-acetyl]-[[(3S)-2-oxo-3-piperidyl]methyl]amino]carbamoyl]-3,3a,4,5,6,6a-hexahydro-1H-cyclopenta[c]pyrrole-2-carbonyl]-2,2-dimethyl-propyl]-2,2,2-trifluoro-acetamide] | 98 | 16 | 243 | 8
8 | CC[C@H](C)[C@H](NC(=O)[C@@H](F)Cl)C(=O)N1C[C@@H]2CCC[C@@H]2[C@H]1C(=O)NN(C[C@H]1CCCNC1=O)C(=O)[C@@H](F)Cl [Example 193, (2S)—N-[(1S,2S)-1-[(3S,3aS,6aR)-3-[[[(2S)-2-chloro-2-fluoro-acetyl]-[[(3R)-2-oxo-3-piperidyl]methyl]amino]carbamoyl]-3,3a,4,5,6,6a-hexahydro-1H-cyclopenta[c]pyrrole-2-carbonyl]-2-methyl-butyl]-2-chloro-2-fluoro-acetamide] | 49 | 33 | 110 | 17
9 | CC(C)(C)[C@H](NC(=O)C1CC(F)(F)C1)C(=O)N1C[C@H]2[C@@H]([C@H]1C(=O)NN(C[C@@H]1CCNC1=O)C(=O)[C@H](F)Cl)C2(C)C [Example 90, N-[(1S)-1-[(1R,2S,5S)-2-[[[(2R)-2-chloro-2-fluoro-acetyl]-[[(3S)-2-oxopyrrolidin-3-yl]methyl]amino]carbamoyl]-6,6-dimethyl-3-azabicyclo[3.1.0]hexane-3-carbonyl]-2,2-dimethyl-propyl]-3,3-difluoro-cyclobutanecarboxamide] | 22 | 12 | 55 | 10
10 | CCC(CC)[C@H](NC(=O)C(F)(F)F)C(=O)N1C[C@@H]2CCC[C@@H]2[C@H]1C(=O)NN(C[C@@H]1CCNC1=O)C(=O)[C@H](F)Cl [Example 77, N-[(1S)-1-[(3S,3aS,6aR)-3-[[[(2R)-2-chloro-2-fluoro-acetyl]-[[(3S)-2-oxopyrrolidin-3-yl]methyl]amino]carbamoyl]-3,3a,4,5,6,6a-hexahydro-1H-cyclopenta[c]pyrrole-2-carbonyl]-2-ethyl-butyl]-2,2,2-trifluoro-acetamide] | 28 | 12 | 69 | 7
11 | C[C@H](NC(=O)C(F)(F)F)C(=O)N1C[C@@H]2CCC[C@@H]2[C@H]1C(=O)NN(C[C@@H]1CCNC1=O)C(=O)[C@H](F)Cl [Example 75, N-[(1S)-2-[(3S,3aS,6aR)-3-[[[(2R)-2-chloro-2-fluoro-acetyl]-[[(3S)-2-oxopyrrolidin-3-yl]methyl]amino]carbamoyl]-3,3a,4,5,6,6a-hexahydro-1H-cyclopenta[c]pyrrol-2-yl]-1-methyl-2-oxo-ethyl]-2,2,2-trifluoro-acetamide] | 33 | 12 | 83 | 12
12 | CC[C@H](C)[C@H](NC(=O)C(F)(F)C(F)(F)F)C(=O)N1C[C@H]2[C@@H]([C@H]1C(=O)NN(C[C@@H]1CCNC1=O)C(=O)[C@H](F)Cl)C2(C)C [Example 62, N-[(1S,2S)-1-[(1R,2S,5S)-2-[[[(2R)-2-chloro-2-fluoro-acetyl]-[[(3S)-2-oxopyrrolidin-3-yl]methyl]amino]carbamoyl]-6,6-dimethyl-3-azabicyclo[3.1.0]hexane-3-carbonyl]-2-methyl-butyl]-2,2,3,3,3-pentafluoro-propanamide] | 17 | 10 | 43 | 8
